Data published in patent US20230040770A1, “HETEROCYCLIC COMPOUND AND USE THEREOF” (TAKEDA PHARMACEUTICAL COMPANY LIMITED, priority 2019, published 2023).

Columns and labels:
[1] = Evaluation of microsome stability in human; format: in vitro ADME; details: pH 7.4; in vitro intrinsic metabolic clearance; human liver microsomes 0.2 mg/mL, 1 μmol/L test compound, NADPH-generating system
Method: Human liver microsomes were purchased from Xenotech, LLC (Lenexa, Kans.). An incubation mixture consisted of microsomes in 50 mmol/L KH2PO4—K2HPO4 phosphate buffer (pH 7.4) and 1 μmol/L test compound. The concentration of microsomal protein was 0.2 mg/mL. An NADPH-generating system (5 mmol/L MgCl2, 5 mmol/L glucose-6-phosphate, 0.5 mmol/L beta-NADP+ and 1.5 unit/mL glucose-6-phosphate dehydrogenase) was added to the incubation mixture with a half volume of the reaction mixture to initiate the enzyme reaction. The reaction was terminated 15 and 30 minutes after the initiation of the reaction by mixing the reaction mixture with acetonitrile, followed by centrifugation at 2500 rpm for 10 min. The supernatant was subjected to LC/MS/MS analysis. The metabolic rate constant was calculated as the slope of the remaining rate-time plot. The in vitro intrinsic metabolic clearance was calculated by dividing initial metabolic rate constant by microsomal protein in the incubation mixture.

[2] = target: T1, human orexin type 2 receptor (Homo sapiens, UniProt O43614); experiment: Measurement of orexin type 2 receptor agonist activity (calcium indicator fluorescence, CHO cells forcibly expressing human OX2 receptor); format: cell-based; details: compound at 3 μM; 0% = DMSO, 100% = orexin A (human) 10 nM
T1 construct: expressed in transfected cells
T1 sequence (O43614 1-444): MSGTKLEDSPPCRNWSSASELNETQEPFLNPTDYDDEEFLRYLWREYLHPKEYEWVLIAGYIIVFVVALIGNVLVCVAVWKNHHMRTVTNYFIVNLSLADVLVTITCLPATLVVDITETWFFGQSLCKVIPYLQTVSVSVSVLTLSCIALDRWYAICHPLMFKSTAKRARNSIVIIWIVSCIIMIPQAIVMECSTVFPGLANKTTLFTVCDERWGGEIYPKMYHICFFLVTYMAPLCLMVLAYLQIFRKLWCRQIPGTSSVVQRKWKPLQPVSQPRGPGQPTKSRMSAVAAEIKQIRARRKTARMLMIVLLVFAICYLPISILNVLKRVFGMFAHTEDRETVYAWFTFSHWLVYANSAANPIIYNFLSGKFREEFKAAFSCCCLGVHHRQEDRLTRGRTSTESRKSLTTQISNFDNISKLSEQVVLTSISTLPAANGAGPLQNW
How it was run: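 Agonist response normalised between vehicle (0%) and orexin A at 10 nM final (100%), from kinetic Fluo-4 calcium signals recorded for about 2 min after compound addition. Cells: stable human OX2R CHO clone, dye-loaded 30 min at 37 °C plus 30 min at room temperature.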

[3] = test system: cynomolgus monkeys; experiment: Evaluation of wake-promoting effects in cynomolgus monkeys (EEG/EMG); format: in vivo, cynomolgus monkey; details: Macaca fascicularis, po, time spent in wakefulness for 4 h after administration, read-out: Wakefulness time (% of vehicle treatment) (Mean); for response vs control in vivo at 3 mg/kg: 3 mg/kg p.o. at ZT12; for response vs control in vivo at 10 mg/kg: 10 mg/kg p.o. at ZT12
Method: The wake-promoting effects were evaluated by measuring the electroencephalogram (EEG) and electromyogram (EMG) in cynomolgus monkeys. Under isoflurane anesthesia (1-5%, Pfizer Japan Inc., Tokyo, Japan), male cynomolgus monkeys (3-5 years old, Hamri Co., Ltd., Ibaraki, Japan) were surgically implanted with radio-telemetry transmitters (TL10M3-D70-EEE, Data Sciences International Inc., MN, USA). EEG electrodes were screwed into the skull at the parietal area. EMG electrodes were implanted on the cervical muscles. After the surgery, each monkey was given penicillin (100,000 units/head, i.m., Meiji Seika Pharma Co., Ltd., Tokyo, Japan), buprenorphine (0.02 mg/kg, i.m., Otsuka Pharmaceutical Co., Ltd., Tokyo, Japan) and prednisolone (1 mg/kg, s.c., Kyoritsu Seiyaku Co., Ltd., Tokyo, Japan) daily for one week. After at least a 1-month recovery period in home cages, the monkeys were habituated to the recording chamber placed in a soundproof room. EEG and EMG signals were recorded using the telemetry system (Dataquest ART software, Data Sciences International Inc., MN, USA) and the signals were analyzed using SleepSign software (Kissei Comtec Co., Ltd., Nagano, Japan). After confirming long sleep in dark phase in the experimental room, we used animals to examine the wake-promoting effect of compounds.
Oral test compounds (3 or 10 mg/kg) suspended in 0.5% methylcellulose aqueous solution, or vehicle (i.e., 0.5% methylcellulose aqueous solution) was administered orally (p.o.) to monkeys at zeitgeber time 12 (ZT12) in a volume of 5 mL/kg body weight in cross-over design or pre-post design (n=1-4). EEG and EMG recordings were performed for 4 h after the compound administration. The time spent in wakefulness for 4 h after administration (% of vehicle treatment) was calculated by using SleepSign.
Parenteral test compounds (0.1 or 0.3 mg/kg) dissolved in a mixed solution comprising 5% DMSO, 5% Cremophor EL, 20% PEG400 and 70% soluplus (1% (w/v)), or vehicle (i.e., a mixed solution comprising 5% DMSO, 5% Cremophor EL, 20% PEG400 and 70% soluplus (1% (w/v))) was administered subcutaneously (s.c.) to monkeys at ZT12 in a volume of 0.5 mL/kg body weight in a pre-post design (n=1-2). EEG and EMG recordings were performed for 4 h after the compound administration. The time spent in wakefulness for 4 h after administration (% of vehicle treatment) was calculated by using SleepSign.

| SMILES | microsomal CLint at 1 μmol/L [1] | OX2R agonist activity (3 μM, %) [2] | response vs control in vivo at 3 mg/kg [3] | response vs control in vivo at 10 mg/kg [3] |
| --- | --- | --- | --- | --- |
| CS(=O)(=O)N[C@@H]1[C@H](Cc2cccc(-c3cc(F)cc(F)c3)c2F)N(C(=O)C23CC(C2)C3)CC1(F)F [Example 87, N-{(2S,3R)-1-(bicyclo[1.1.1]pentane-1-carbonyl)-4,4-difluoro-2-[(2,3′,5′-trifluoro[1,1′-biphenyl]-3-yl)methyl]pyrrolidin-3-yl}methanesulfonamide] | 9 µL/min/mg | 93% | 832% |  |
| CCS(=O)(=O)N[C@@H]1[C@H](Cc2cccc(-c3cccc(F)c3)c2F)N(C(=O)[C@H]2C[C@H](F)C2)CC1(F)F [Example 225, N-[(2S,3R)-2-[(2,3′-difluoro[1,1′-biphenyl]-3-yl)methyl]-4,4-difluoro-1-((1r,3S)-3-fluorocyclobutane-1-carbonyl)pyrrolidin-3-yl]ethanesulfonamide] | 60 µL/min/mg | 96% | 318% |  |
| CCS(=O)(=O)N[C@H]1[C@@H](F)CN(C(=O)C2CC2)[C@H]1Cc1cccc(-c2cc(F)cc(F)c2)c1F [Example 236, N-{(2S,3R,4S)-1-(cyclopropanecarbonyl)-4-fluoro-2-[(2,3′,5′-trifluoro[1,1′-biphenyl]-3-yl)methyl]pyrrolidin-3-yl}ethanesulfonamide] | 67 µL/min/mg | 100% |  | 716% |
| CCS(=O)(=O)N[C@H]1[C@@H](F)CN(C(=O)[C@H]2CCO2)[C@H]1Cc1cccc(-c2ccccc2)c1F [Example 302, N-[(2S,3R,4S)-4-fluoro-2-[(2-fluoro[1,1′-biphenyl]-3-yl)methyl]-1-((2R)-oxetane-2-carbonyl)pyrrolidin-3-yl]ethanesulfonamide] | 3 µL/min/mg | 85% |  | 288% |
| CS(=O)(=O)N[C@@H]1[C@H](Cc2cccc(-c3cc(F)cc(F)c3)c2F)N(C(=O)[C@H]2C[C@@H](F)C2)CC1(F)F [Example 433, N-{(2S,3R)-4,4-difluoro-1-(3-fluorocyclobutane-1-carbonyl)-2-[(2,3′,5′-trifluoro[1,1′-biphenyl]-3-yl)methyl]pyrrolidin-3-yl}methanesulfonamide] | 16 µL/min/mg | 101% | 727% |  |

Now from value to compound, other results behind:

| microsomal CLint at 1 μmol/L [1] | OX2R agonist activity (3 μM, %) [2] | SMILES | response vs control in vivo at 3 mg/kg [3] | response vs control in vivo at 10 mg/kg [3] |
| --- | --- | --- | --- | --- |
| 65 µL/min/mg | 94% | CS(=O)(=O)N[C@@H]1[C@H](Cc2cccc(-c3cc(F)cc(F)c3)c2F)N(C(=O)[C@H]2CCO2)CC1(F)F [Example 91, N-{(2S,3R)-4,4-difluoro-1-((2R)-oxetane-2-carbonyl)-2-[(2,3′,5′-trifluoro[1,1′-biphenyl]-3-yl)methyl]pyrrolidin-3-yl}methanesulfonamide] |  | 548% |
| 44 µL/min/mg | 99% | CCS(=O)(=O)N[C@@H]1[C@H](Cc2cccc(-c3cccc(F)c3)c2F)N(C(=O)C(C)C)CC1(F)F [Example 94, N-[(2S,3R)-2-[(2,3′-difluoro[1,1′-biphenyl]-3-yl)methyl]-4,4-difluoro-1-(2-methylpropanoyl)pyrrolidin-3-yl]ethanesulfonamide] | 442% |  |
| 13 µL/min/mg | 88% | CCS(=O)(=O)N[C@@H]1[C@H](Cc2cccc(-c3cc(F)cc(F)c3)c2F)N(C(=O)C2CC2)CC1(F)F [Example 144, N-{(2S,3R)-1-(cyclopropanecarbonyl)-4,4-difluoro-2-[(2,3′,5′-trifluoro[1,1′-biphenyl]-3-yl)methyl]pyrrolidin-3-yl}ethanesulfonamide] | 649% |  |
| 83 µL/min/mg | 92% | CCS(=O)(=O)N[C@@H]1[C@H](Cc2cccc(-c3cc(F)cc(F)c3)c2F)N(C(=O)C(C)C)CC1(F)F [Example 146, N-{(2S,3R)-4,4-difluoro-1-(2-methylpropanoyl)-2-[(2,3′,5′-trifluoro[1,1′-biphenyl]-3-yl)methyl]pyrrolidin-3-yl}ethanesulfonamide] | 426% |  |
| 35 µL/min/mg | 91% | CCS(=O)(=O)N[C@@H]1[C@H](Cc2cccc(-c3cc(F)cc(F)c3)c2F)N(C(=O)[C@H]2C[C@H](F)C2)CC1(F)F [Example 375, N-{(2S,3R)-4,4-difluoro-1-((1r,3S)-3-fluorocyclobutane-1-carbonyl)-2-[(2,3′,5′-trifluoro[1,1′-biphenyl]-3-yl)methyl]pyrrolidin-3-yl}ethanesulfonamide] | 396% |  |
| 39 µL/min/mg | 93% | CCS(=O)(=O)N[C@@H]1[C@H](Cc2cccc(-c3cc(F)cc(F)c3)c2F)N(C(=O)[C@H]2C[C@@H](F)C2)CC1(F)F [Example 380, N-{(2S,3R)-4,4-difluoro-1-((1s,3R)-3-fluorocyclobutane-1-carbonyl)-2-[(2,3′,5′-trifluoro[1,1′-biphenyl]-3-yl)methyl]pyrrolidin-3-yl}ethanesulfonamide] | 484% |  |
